“Also recorded” adds a separate entry of the source.
What was measured:
TC71+GFP-Luc (ES) cells = test: PBC xenograft mouse model, ES; assay type: in vivo, BALB/c nude mice
Protocol: (§1) Mice. The University of Sheffield Animal Welfare and Ethics Committee approved the animal experiments. Experiments were performed under licence in accordance with the UK Home Office guidelines and under the Animals (Scientific Procedures) Act 1986. Six- to seven-week-old female BALB/c nude mice (Charles River Laboratories) were acclimatised for one week prior to in vivo study. Mice were housed with a 12 h light-dark cycle at 22° C. and had free access to 2018 Teklad global 18% protein rodent diet containing 1.01% calcium (Harlan) and water. Mice were anesthetised by isoflurane inhalation before implantation with 2.5×10^5 143B+GFP-Luc (OS) cells or 5×10^5 TC71+GFP-Luc (ES) cells in 20 μl PBS onto the tibial surface. Mice were matched by weight and initial IVIS signal and then randomly divided into groups (n=8 mice/group). CADD522 treatment commenced the day after tumours became visible. Mice received either vehicle control (PBS and DMSO) or CADD522 (25 mg/kg) by IP injection five times per week. Tumours were measured by callipers throughout the study twice per week blinded. Two perpendicular measurements were taken and volume calculated by the formula V=0.523×L×(S)^2 where L and S refer to the largest and smallest measurement. Mice were treated until the palpable tumour reached the permissible 12 mm diameter limit. At the end of the procedure ex vivo imaging of mouse internal organs was performed to detect metastasis. Prior to killing, mice were injected subcutaneously with 150 mg/kg XenoLight D-Luciferin substrate (Perkin Elmer) that was left to disperse for a minimum of 5 m. Dissected organs were then imaged using the IVIS Lumina II. […]
Micro-CT. […] The region of interest (ROI) for the total bone volume was selected to include both the tibia and fibula and was determined at the top of the bone as soon as the tibia enters the image to the lower point where the tibia and fibula meet. […]
(§2) Statistics. […] Data was tested for normality by D'Agostino Pearson Omnibus test and analysed in GraphPad Prism v9 with p=<0.05 regarded as significant. […]

[1] = Observed toxicity in treated PBC model mice; assay type: in vivo; details: 25 mg/kg over the study period
Protocol: as §1, with “limit.” for “limit. At the end of the procedure ex vivo imaging of mouse internal organs was performed to detect metastasis. Prior to killing, mice were injected subcutaneously with 150 mg/kg XenoLight D-Luciferin substrate (Perkin Elmer) that was left to disperse for a minimum of 5 m. Dissected organs were then imaged using the IVIS Lumina II.”

143B+GFP-Luc (OS) cells = test: PBC xenograft mouse model, OS; assay type: in vivo, BALB/c nude mice
Protocol: Mice. The University of Sheffield Animal Welfare and Ethics Committee approved the animal experiments. Experiments were performed under licence in accordance with the UK Home Office guidelines and under the Animals (Scientific Procedures) Act 1986. Six- to seven-week-old female BALB/c nude mice (Charles River Laboratories) were acclimatised for one week prior to in vivo study. Mice were housed with a 12 h light-dark cycle at 22° C. and had free access to 2018 Teklad global 18% protein rodent diet containing 1.01% calcium (Harlan) and water. Mice were anesthetised by isoflurane inhalation before implantation with 2.5×10^5 143B+GFP-Luc (OS) cells or 5×10^5 TC71+GFP-Luc (ES) cells in 20 μl PBS onto the tibial surface. Mice were matched by weight and initial IVIS signal and then randomly divided into groups (n=8 mice/group). CADD522 treatment commenced the day after tumours became visible. Mice received either vehicle control (PBS and DMSO) or CADD522 (25 mg/kg) by IP injection five times per week. Tumours were measured by callipers throughout the study twice per week blinded. Two perpendicular measurements were taken and volume calculated by the formula V=0.523×L×(S)^2 where L and S refer to the largest and smallest measurement. Mice were treated until the palpable tumour reached the permissible 12 mm diameter limit. At the end of the procedure ex vivo imaging of mouse internal organs was performed to detect metastasis. Prior to killing, mice were injected subcutaneously with 150 mg/kg XenoLight D-Luciferin substrate (Perkin Elmer) that was left to disperse for a minimum of 5 m. Dissected organs were then imaged using the IVIS Lumina II. Mice legs and lungs were dissected and fixed in 10% formalin for further analysis.
Micro-CT. Fixed tibiae were scanned using a SkyScan 1172 desktop micro-CT machine (Bruker) at 8 um resolution with the X-ray source operating at 50 kV, 200 uA and using a 0.5 mm aluminium filter. Images were captured every 0.7°. Scanned images were reconstructed using Skyscan NRecon software v1.6.9 (Bruker). The region of interest (ROI) for the total bone volume was selected to include both the tibia and fibula and was determined at the top of the bone as soon as the tibia enters the image to the lower point where the tibia and fibula meet.
Histology. Bones were fixed in neutral buffered formalin for 48 h after which they were transferred to 70% ethanol. Bones were then decalcified in 10% EDTA, embedded in paraffin and 5 μm sections produced. Sections were de-waxed in xylene, rehydrated through graded alcohols and stained in haematoxylin (VWR) and eosin. The sections were dehydrated through graded alcohols and coverslips were mounted in DPX and imaged using Olympus BX51 microscope (Olympus Life Sciences) and Pannoramic 250 Flash III slide scanner (3[…]).
Statistics. For statistical tests p=<0.05 was considered as statistically significant. Proliferation data is reported for each experimental repeat (n=3). Data was tested for normality by D'Agostino Pearson Omnibus test and analysed in GraphPad Prism v9 with p=<0.05 regarded as significant. A one-way ANOVA was used to identify any differences in proliferation across the concentration range tested compared to the untreated control. A post-hoc Dunnett's multiple comparison was then used to determine which concentration impacted proliferation compared to the untreated control. […]

143B (human OS) cells = test: Proliferation assay (WST-1), OS cells; assay type: cell-based; details: 100 μM CADD522, 72 h, WST-1, relative to control
Protocol: (§3) Cell lines. 143B (human OS) and TC71 (human ES) cells were obtained from ATCC. Cells were authenticated by STR profiling and were cultured in DMEM/F-12 (Thermo Fisher Scientific) or IMDM (Thermo Fisher Scientific) containing 1% (v/v) insulin transferrin selenium, 10% (v/v) FBS and 1% (v/v) penicillin/streptomycin. Medium was refreshed every other day and cells were maintained at 37° C. in 5% CO2. For the animal experiments 143B and TC71 cells were modified by transfecting with the GFP-luciferase tagged LVP02 lentivirus (AMSBIO). Adding the luciferase tag had no effect on cell phenotype.
(§4) Proliferation assays. 1×10^3 cells in 100 μL of medium were seeded per well into 96-well plates. PBS was added to outer wells to prevent evaporation. All plates were incubated for 24 h at 37° C. in 5% CO2. 100 nM, 1 μM, 10 μM and 100 μM CADD522 were added from a stock concentration of 10 mM in DMSO and incubated for 72 h before measuring cell viability/proliferation using the WST-1 assay kit (Abcam) following manufacturer's instructions. Data was presented as relative to the control (appearing as −11 on x-axis), which is set to 100% viability. Experiments were performed in quadruplicates in three independent experiments.
as §2

TC71 (human ES) cells = test: Proliferation assay (WST-1), ES cells; assay type: cell-based; details: 100 μM CADD522, 72 h, WST-1, relative to control
Protocol: as §3, §4, §2

[2] = test system: osteosarcoma and Ewing sarcoma; details: PMID: 20068084; cited from earlier work
osteosarcoma = details: at 18 weeks of treatment, PMID: 33580363; cited from earlier work
[3] = 25 mg/kg IP, compared to controls

Compound: O=C(O)C1C2C=CC(C2)C1C(=O)Nc1ccc(Cl)c(Cl)c1 (stereo not shown) [CADD522, 3-(N-(3,4-dichlorophenyl)carbamoyl)-5-norbornene-2-carboxylic acid]
- overall survival, ES mice (TC71+GFP-Luc (ES) cells; 25 mg/kg IP five times per week vs control, p=0.043): Significantly increased overall survival
- ES tumour volume over time (TC71+GFP-Luc (ES) cells; 25 mg/kg IP five times per week vs vehicle control, p=0.0003): significantly reduced tumour volume
- histology (H&E) of ES tumours at endpoint (TC71+GFP-Luc (ES) cells; [3]): generally more vascularised
- observed toxicity in the animals [1]: no observed toxicity
- metastasis-free survival, OS mice (143B+GFP-Luc (OS) cells; 25 mg/kg IP five times per week vs control, p=0.0091): significantly increased metastasis-free survival
- overall survival, OS mice (143B+GFP-Luc (OS) cells; 25 mg/kg IP five times per week vs control, p=0.093): Half of OS mice receiving CADD522 treatment survived longer than the control group
- OS tumour volume over time (143B+GFP-Luc (OS) cells; 25 mg/kg IP five times per week vs vehicle control, p=0.0072): significantly reduced tumour volume
- histology (H&E) of OS tumours at endpoint (143B+GFP-Luc (OS) cells; [3]): more densely packed, generally more vascularised and more organised (arranged in chords)
- bone volume difference, tumour bearing leg vs contralateral (CL) leg (micro-CT) (143B+GFP-Luc (OS) cells; OS mice, 25 mg/kg IP, in control mice difference significant (p=0.02)): no longer statistically significant
- OS cell viability/proliferation (143B (human OS) cells): cytotoxic effect; also recorded: significantly reduced cell proliferation
- ES cell viability/proliferation (TC71 (human ES) cells): cytotoxic; also recorded: showed cell proliferation differences

Compound: C/C(=C\c1csc(C)n1)[C@@H]1C[C@@H]2O[C@]2(C)CCC[C@H](C)[C@H](O)[C@@H](C)C(=O)C(C)(C)[C@@H](O)CC(=O)N1 [ixabepilone]
- clinical response [2]: no partial or complete responses were observed

Compound: pembrolizumab
- clinical benefit (osteosarcoma): no patients had clinical benefit

Reference: patent US20250312300A1, “BRIDGED BICYCLIC CARBOXYLIC ACIDS FOR TREATING OSTEOSARCOMA AND EWING SARCOMA” (UEA ENTERPRISES LIMITED, priority 2022, published 2025)
